# Test results taken from patent US20250206718A1, “NITROGEN-CONTAINING HETEROCYCLIC DERIVATIVE INHIBITOR, PREPARATION METHOD THEREFOR AND USE THEREOF” (SHANGHAI HANSOH BIOMEDICAL CO., LTD., priority 2022, published 2025).
# Molecular target: Ba/F3 EGFR Del19/C797S cells (Homo sapiens, UniProt P00533, C797S, cells depend on it, form not given)
# Assay: Cell proliferation inhibition (Cell Titer-Glo), Ba/F3 EGFR Del19/C797S
# Type: cell-based, mouse
# Settings: 72 hours, CellTiter-Glo, read-out: Ba/F3 EGFR Del19/C797S IC50
# From the text: (§1) Experimental objective: The objective of this test example is to test the inhibitory activity of compounds on the proliferation of different EGFR C797S drug-resistant mutant cell lines Ba/F3 EGFR Del19/T790M/C797S, Ba/F3 EGFR L858R/T790M/C797S, and Ba/F3 EGFR Del19/C797S.
# (§2) • Ba/F3 EGFR Del19/T790M/C797S cells were purchased from KYinno Biotechnology Co., Ltd.; • Ba/F3 EGFR Del19/C797S cells were purchased from CoBioer Biosciences Co., Ltd.; • Ba/F3 EGFR L858R/T790M/C797S cells were purchased from CoBioer Biosciences Co., Ltd.; • Cell Titer-Glo was purchased from Promega, with a catalog number of G7573; • RPMI 1640 was purchased from Gibco, with a catalog number of 22400089; • FBS was purchased from Gibco, with a catalog number of 10091148; • cell culture plates were purchased from Corning, with a catalog number of 3610.
# (§3) The inhibitory activity of the compound on the proliferation of different EGFR C797S drug-resistant mutant cell lines was detected using the Cell Titer-Glo method. The different cell lines were cultured in RPMI 1640 complete culture medium containing 10% FBS under conditions of 37° C. and 5% CO2, the cells were collected by centrifugation when growing to a certain density, and adjusted to appropriate cell density after counting, the cells were spread on a white 96-well plate at 90 μL/well, and cultured in a 37° C., 5% CO2 incubator overnight, prepared compound solutions of different concentrations were added at 10 μL/well, corresponding solvent controls were set, and all wells were cultured in a 37° C., 5% CO2 incubator for 72 hours, 50 μL of CellTiter-Glo solution was added to each well, shook and mixed evenly, and incubated in the dark for 10 minutes, and a BioTek Synergy H1 microplate reader was used for reading.
# (§4) The luminescence signal value was used to calculate the inhibition rate. Graphpad Prism software was used to fit the concentration and inhibition rate to a nonlinear regression curve, so as to obtain the IC50 value, as shown in the Table below for details.
# Ba/F3 EGFR Del19/C797S cells, sequence (P00533 with tags, fused parts or gaps DEL746-750/C797S, form open): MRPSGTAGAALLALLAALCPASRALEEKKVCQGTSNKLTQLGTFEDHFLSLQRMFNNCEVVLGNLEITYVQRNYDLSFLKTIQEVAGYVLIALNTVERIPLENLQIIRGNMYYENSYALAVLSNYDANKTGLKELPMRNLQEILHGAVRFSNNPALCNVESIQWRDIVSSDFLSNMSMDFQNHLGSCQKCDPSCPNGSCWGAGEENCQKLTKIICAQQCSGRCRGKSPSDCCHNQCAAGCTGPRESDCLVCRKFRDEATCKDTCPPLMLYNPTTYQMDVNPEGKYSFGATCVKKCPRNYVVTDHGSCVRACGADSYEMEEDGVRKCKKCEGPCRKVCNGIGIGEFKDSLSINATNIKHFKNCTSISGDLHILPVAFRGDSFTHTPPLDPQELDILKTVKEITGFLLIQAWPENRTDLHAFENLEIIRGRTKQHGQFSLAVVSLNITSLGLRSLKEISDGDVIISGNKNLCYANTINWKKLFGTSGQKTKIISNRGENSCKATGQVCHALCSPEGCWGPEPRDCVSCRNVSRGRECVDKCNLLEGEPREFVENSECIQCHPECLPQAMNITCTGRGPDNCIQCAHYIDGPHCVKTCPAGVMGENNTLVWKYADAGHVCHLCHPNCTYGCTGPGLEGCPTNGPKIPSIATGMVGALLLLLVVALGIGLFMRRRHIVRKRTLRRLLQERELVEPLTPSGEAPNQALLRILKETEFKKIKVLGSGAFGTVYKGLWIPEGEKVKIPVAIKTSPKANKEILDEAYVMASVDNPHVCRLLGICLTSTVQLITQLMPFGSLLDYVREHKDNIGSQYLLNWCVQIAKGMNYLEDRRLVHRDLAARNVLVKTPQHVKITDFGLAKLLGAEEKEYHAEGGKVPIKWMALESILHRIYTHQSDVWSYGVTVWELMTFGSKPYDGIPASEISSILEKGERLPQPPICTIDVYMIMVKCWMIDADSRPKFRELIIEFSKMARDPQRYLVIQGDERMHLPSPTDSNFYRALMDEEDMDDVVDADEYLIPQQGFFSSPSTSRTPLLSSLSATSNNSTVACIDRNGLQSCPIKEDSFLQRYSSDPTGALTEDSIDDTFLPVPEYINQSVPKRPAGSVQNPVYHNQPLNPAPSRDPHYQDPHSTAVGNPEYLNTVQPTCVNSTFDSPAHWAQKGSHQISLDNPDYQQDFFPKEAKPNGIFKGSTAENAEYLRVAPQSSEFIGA
row,SMILES,GI50 [nM]
1,"[2H]C([2H])([2H])n1cc(-c2nccc(Nc3cc4c(C(C)C)ccc(N5C[C@H](CS(C)(=O)=O)[C@H]5C)c4cn3)n2)c(C)n1 [Example 2, 5-isopropyl-N-(2-(3-methyl-1-(methyl-d3)-1H-pyrazol-4-yl)pyrimidin-4-yl)-8-((2R,3S)-2-methyl-3-((methylsulfonyl)methyl)azetidin-1-yl)isoquinolin-3-amine]",13
2,"CC(C)c1ccc(N2CC(NS(C)(=O)=O)C2)c2cnc(Nc3ccnc(-c4cn(C)nc4Cl)n3)cc12 [Example 44, N-(1-(3-((2-(3-chloro-1-methyl-1H-pyrazol-4-yl)pyrimidin-4-yl)amino)-5-isopropylisoquinolin-8-yl)azetidin-3-yl)methanesulfonamide]",8.4
3,"Cc1nn(C)cc1-c1nccc(Nc2cc3c(C(C)C)ncc(N4CC(N(C)S(C)(=O)=O)C4)c3cn2)n1 [Example 60, N-(1-(7-((2-(1,3-dimethyl-1H-pyrazol-4-yl)pyrimidin-4-yl)amino)-1-isopropyl-2,6-diazanaphthalen-4-yl)azetidin-3-yl)-N-methyl methanesulfonamide]",5.6
4,"CC(C)c1ncc(N2C[C@H](CS(C)(=O)=O)[C@H]2C)c2cnc(Nc3ccnc(-c4cn(C)nc4Cl)n3)cc12 [Example 133, N-(2-(3-chloro-1-methyl-1H-pyrazol-4-yl)pyrimidin-4-yl)-5-isopropyl-8-((2R,3S)-2-methyl-3-((methanesulfonyl)methyl)azetidin-1-yl)-2,6-diazanaphthalen-3-amine]",27
5,"CC(C)c1ccc(N2C[C@H](CS(C)(=O)=O)[C@H]2C)c2cnc(Nc3ccnc(-c4cn(C[C@H]5CCCO5)nc4Cl)n3)cc12 [Example 144, N-(2-(3-chloro-1-(((R)-tetrahydrofuran-2-yl)methyl)-1H-pyrazol-4-yl)pyrimidin-4-yl)-5-isopropyl-8-((2R,3S)-2-methyl-3-((methanesulfonyl)methyl)azetidin-1-yl)isoquinolin-3-amine]",26
6,"CC(=O)Cn1cc(-c2nccc(Nc3cc4c(C(C)C)ccc(N5C[C@H](CS(C)(=O)=O)[C@H]5C)c4cn3)n2)c(Cl)n1 [Example 114, 1-(3-chloro-4-(4-((5-isopropyl-8-((2R,3S)-2-methyl-3-((methanesulfonyl)methyl)azetidin-1-yl)isoquinolin-3-yl)amino)pyrimidin-2-yl)-1H-pyrazol-1-yl)propan-2-one]",39
7,"CC(C)c1ncc(N2C[C@H](N(C)S(C)(=O)=O)[C@H]2C)c2cnc(Nc3ccnc(-c4cn(C)nc4Cl)n3)cc12 [Example 59, N-((2R,3S)-1-(7-((2-(3-chloro-1-methyl-1H-pyrazol-4-yl)pyrimidin-4-yl)amino)-1-isopropyl-2,6-diazanaphthalen-4-yl)-2-methylazetidin-3-yl)-N-methyl methanesulfonamide]",5
8,"[2H]C([2H])([2H])c1nn(C)cc1-c1nccc(Nc2cc3c(C(C)C)ccc(N4C[C@H](CS(C)(=O)=O)[C@H]4C)c3cn2)n1 [Example 3, 5-isopropyl-8-((2R,3S)-2-methyl-3-((methanesulfonyl)methyl)azetidin-1-yl)-N-(2-(1-methyl-3-(methyl-d3)-1H-pyrazol-4-yl)pyrimidin-4-yl)isoquinolin-3-amine]",16
9,"CC(C)c1ccc(N2C[C@H](CS(C)(=O)=O)[C@H]2C)c2cnc(Nc3ccnc(-c4cn([C@@H]5CCOC5)nc4Cl)n3)cc12 [Example 143, N-(2-(3-chloro-1-((R)-tetrahydrofuran-3-yl)-1H-pyrazol-4-yl)pyrimidin-4-yl)-5-isopropyl-8-((2R,3S)-2-methyl-3-((methanesulfonyl)methyl)azetidin-1-yl)isoquinolin-3-amine]",30
10,"CC(C)c1ccc(N2C[C@H](CS(C)(=O)=O)[C@H]2C)c2cnc(Nc3ccnc(-c4cn(C(C)C#N)nc4Cl)n3)cc12 (stereo partly drawn) [Example 115, 2-(3-chloro-4-(4-((5-isopropyl-8-((2R,3S)-2-methyl-3-((methanesulfonyl)methyl)azetidin-1-yl)isoquinolin-3-yl)amino)pyrimidin-2-yl)-1H-pyrazol-1-yl)propanenitrile]",73
11,"Cc1nn(C)cc1-c1nccc(Nc2cc3c(C(C)C)ccc(N4CC(N(C)S(C)(=O)=O)C4)c3cn2)n1 [Example 71, N-(1-(3-((2-(1,3-dimethyl-1H-pyrazol-4-yl)pyrimidin-4-yl)amino)-5-isopropylisoquinolin-8-yl)azetidin-3-yl)-N-methyl methanesulfonamide]",17

# The remaining lines, values ahead:
row,GI50 [nM],SMILES
1,60,"CC(C)c1ccc(N2C[C@H](CS(C)(=O)=O)[C@H]2C)c2cnc(Nc3ccnc(-c4c[nH]nc4Cl)n3)cc12 [Example 170, N-(2-(3-chloro-1H-pyrazol-4-yl)pyrimidin-4-yl)-5-isopropyl-8-((2R,3S)-2-methyl-3-((methanesulfonyl)methyl)azetidin-1-yl)isoquinolin-3-amine]"
2,65,"CC1CC(Cn2cc(-c3nccc(Nc4cc5c(C(C)C)ccc(N6C[C@H](CS(C)(=O)=O)[C@H]6C)c5cn4)n3)c(Cl)n2)O1 (stereo partly drawn) [Example 188, N-(2-(3-chloro-1-((4-methyloxetan-2-yl)methyl)-1H-pyrazol-4-yl)pyrimidin-4-yl)-5-isopropyl-8-((2R,3S)-2-methyl-3-((methanesulfonyl)methyl)azetidin-1-yl)isoquinolin-3-amine]"
3,41,"CC(C)c1ccc(N2C[C@H](CS(C)(=O)=O)[C@H]2C)c2cnc(Nc3ccnc(-c4cn(C5CC(C#N)C5)nc4Cl)n3)cc12 (stereo partly drawn) [Example 151A, 3-(3-chloro-4-(4-((5-isopropyl-8-((2R,3S)-2-methyl-3-((methanesulfonyl)methyl)azetidin-1-yl)isoquinolin-3-yl)amino)pyrimidin-2-yl)-1H-pyrazol-1-yl)cyclobutane-1-carbonitrile]"
4,22,"CC(C)c1ccc(N2C[C@H](CS(C)(=O)=O)[C@H]2C)c2cnc(Nc3ccnc(-c4cn(CC5CCO5)nc4Cl)n3)cc12 (stereo partly drawn) [Example 165, N-(2-(3-chloro-1-(oxetan-2-ylmethyl)-1H-pyrazol-4-yl)pyrimidin-4-yl)-5-isopropyl-8-((2R,3S)-2-methyl-3-((methanesulfonyl)methyl)azetidin-1-yl)isoquinolin-3-amine]"
5,74,"Cc1nn(C)cc1-c1nccc(Nc2cc3c(C(C)C)ccc(N4CC(CS(C)(=O)=NC#N)C4)c3cn2)n1 (stereo not drawn) [Example 167, N-(((1-(3-((2-(1,3-dimethyl-1H-pyrazol-4-yl)pyrimidin-4-yl)amino)-5-isopropylisoquinolin-8-yl)azetidin-3-yl)methyl)(methyl)(carbonyl)-16-sulfanylidene)cyanamide]"

# System: not listed separately
# Assay: Rat pharmacokinetic evaluation test
# Type: in vivo
# Settings: Sprague-Dawley (SD), po, SD rats, male, p.o. 5 mg/kg, plasma
# Procedure: SD rats were used as test animals to study the pharmacokinetic behavior of the compounds of the present invention in the rat body (plasma) after oral administration at a dose of 5 mg/kg.
# 2.2 Experimental Animals: 3 SD Rats/Group, Male, from Shanghai Jiesijie Experimental Animal Co., Ltd., Animal Production License Number (SCXK (Shanghai) 2013-0006 No. 311620400001794).
# • Oral administration drug preparation: 20% solutol HS15 in 0.5% MC (methylcellulose)
# 20 g of a Solutol HS15 solid and 0.5 g of a MC solid powder were weighed and dissolved in 80 mL of purified water, and the mixture was vortexed, mixed until uniform, and subjected to ultrasound treatment to obtain a clear solution of 20% solutol HS15 in 0.5% MC.
# The example compound was weighed into a 20 mL glass bottle, the solution was added thereto and the mixture was subjected to ultrasound treatment for 10 minutes to obtain a clear solution with a concentration of 0.5 mg/mL.
# 3 male SD rats were administered p.o. respectively after the 3 male SD rats were fasted overnight; the p.o. dose was 5 mg/kg and the administration volume was 10 mL/kg.
# Blood collection: Before and after administration to rats, 0.2 mL of blood was collected from the jugular vein at 0.25, 0.5, 1, 2, 4, 6, 8 and 24 h, and placed in an EDTA-K2 anticoagulation tube, which was centrifuged at 6000 rpm at 4° C. for 6 min to separate plasma which was stored at −80° C.; the rats were fed 4 h after administration.
# 1) 160 μL of acetonitrile was added to 40 μL of plasma sample for precipitation, mixed and centrifuged at 3500×g for 5 to 20 min.
# 2) the treated supernatant solution was taken and subjected to LC/MS/MS to analyze the concentrations of the test compounds. LC/MS/MS analysis instrument: AB Sciex API 4000 Qtrap.
# • Liquid phase conditions: Shimadzu LC-20AD pump • Chromatographic column: Agilent ZORBAX XDB-C18 (50×2.1 mm, 3.5 μm) mobile phase: liquid A is 0.1% aqueous formic acid solution, liquid B is acetonitrile • Flow rate: 0.4 mL/min • Elution time: 0-4.0 min, the eluent is as follows:
# The main pharmacokinetic parameters were calculated using WinNonlin 6.1.
AUC(0-t) [ng·h/mL],Cmax [ng/mL],half-life [h],SMILES
2380,458,4.1,"[2H]C([2H])([2H])c1nn(C)cc1-c1nccc(Nc2cc3c(C(C)C)ccc(N4C[C@H](CS(C)(=O)=O)[C@H]4C)c3cn2)n1 [Example 3, 5-isopropyl-8-((2R,3S)-2-methyl-3-((methanesulfonyl)methyl)azetidin-1-yl)-N-(2-(1-methyl-3-(methyl-d3)-1H-pyrazol-4-yl)pyrimidin-4-yl)isoquinolin-3-amine]"

# Molecular target: Ba/F3 EGFR Del19/T790M/C797S cells (Homo sapiens, UniProt P00533, T790M/C797S, cells depend on it, form not given)
# Sequence (P00533 with tags, fused parts or gaps DEL746-750/T790M/C797S, form open): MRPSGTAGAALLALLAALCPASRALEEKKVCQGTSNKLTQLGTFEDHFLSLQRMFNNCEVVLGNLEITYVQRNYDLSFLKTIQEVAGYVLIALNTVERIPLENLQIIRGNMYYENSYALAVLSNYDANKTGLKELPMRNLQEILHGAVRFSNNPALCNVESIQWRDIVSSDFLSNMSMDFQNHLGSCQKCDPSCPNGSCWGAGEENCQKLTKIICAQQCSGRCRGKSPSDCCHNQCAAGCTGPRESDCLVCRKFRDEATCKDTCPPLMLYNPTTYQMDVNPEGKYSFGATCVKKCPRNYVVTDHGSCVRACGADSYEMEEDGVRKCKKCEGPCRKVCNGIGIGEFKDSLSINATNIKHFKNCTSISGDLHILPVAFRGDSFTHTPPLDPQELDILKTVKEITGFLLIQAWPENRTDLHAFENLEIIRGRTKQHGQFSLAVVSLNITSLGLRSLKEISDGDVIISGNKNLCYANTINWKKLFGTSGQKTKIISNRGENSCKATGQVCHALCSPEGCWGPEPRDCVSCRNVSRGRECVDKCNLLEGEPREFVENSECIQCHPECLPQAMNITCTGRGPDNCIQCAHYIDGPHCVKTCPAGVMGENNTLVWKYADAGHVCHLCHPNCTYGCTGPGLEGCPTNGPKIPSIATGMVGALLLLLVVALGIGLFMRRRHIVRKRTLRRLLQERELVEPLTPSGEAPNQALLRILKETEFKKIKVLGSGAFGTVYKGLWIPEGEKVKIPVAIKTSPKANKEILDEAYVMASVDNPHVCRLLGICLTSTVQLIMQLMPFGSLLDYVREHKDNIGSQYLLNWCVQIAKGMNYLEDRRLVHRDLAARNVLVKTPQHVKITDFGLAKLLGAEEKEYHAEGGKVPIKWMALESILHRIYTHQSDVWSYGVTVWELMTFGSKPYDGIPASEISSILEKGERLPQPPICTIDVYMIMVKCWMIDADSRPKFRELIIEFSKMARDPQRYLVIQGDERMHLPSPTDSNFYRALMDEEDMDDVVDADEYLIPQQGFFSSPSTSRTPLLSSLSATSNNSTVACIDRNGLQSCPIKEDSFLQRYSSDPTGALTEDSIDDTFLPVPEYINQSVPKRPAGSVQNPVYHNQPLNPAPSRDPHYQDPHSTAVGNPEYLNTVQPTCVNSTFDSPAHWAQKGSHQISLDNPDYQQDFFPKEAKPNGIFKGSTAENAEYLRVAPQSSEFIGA
# Assay: Cell proliferation inhibition (Cell Titer-Glo), Ba/F3 EGFR Del19/T790M/C797S
# Type: cell-based, mouse
# Settings: 72 hours, CellTiter-Glo, read-out: Ba/F3 EGFR Del19_T790M_C797S IC50
# From the text: as §1, §2, §3, §4
row,GI50 [nM],SMILES
1,6.2,"[2H]C([2H])([2H])n1cc(-c2nccc(Nc3cc4c(C(C)C)ccc(N5C[C@H](CS(C)(=O)=O)[C@H]5C)c4cn3)n2)c(C)n1 [Example 2, 5-isopropyl-N-(2-(3-methyl-1-(methyl-d3)-1H-pyrazol-4-yl)pyrimidin-4-yl)-8-((2R,3S)-2-methyl-3-((methylsulfonyl)methyl)azetidin-1-yl)isoquinolin-3-amine]"
2,10,"CC(C)c1ccc(N2CC(NS(C)(=O)=O)C2)c2cnc(Nc3ccnc(-c4cn(C)nc4Cl)n3)cc12 [Example 44, N-(1-(3-((2-(3-chloro-1-methyl-1H-pyrazol-4-yl)pyrimidin-4-yl)amino)-5-isopropylisoquinolin-8-yl)azetidin-3-yl)methanesulfonamide]"
